# Experiments:
# human CD3 T cells = details: T cells incubated with 0.01 μM to 10 mM AMD3100 before addition to the chamber; harvest after 3 h
# Method: For quantitative transmigration assays, purified human CD3′ T cells (approximately 2×10^4 cells) are added to the upper chamber of a Transwell®, insert in each well, to a total volume of 150 μl of Iscove's modified medium.
# To determine the anti-fugetactic concentration of AMD3100, the T cells are incubated with 0.01 μM to 10 mM AMD3100 prior to addition to the chamber.
# Cells are harvested from the lower chamber after 3 h, and cell counts are performed using a hemocytometer.
# human CD3+ T cells = test system: human CD3+ T cells
# Method: Freshly prepared and purified human CD3^+ T cells were prepared from healthy donor peripheral blood. 20,000 T cells were loaded into the upper chamber of the Transwell in control, chemotactic or fugetactic settings with AMD3100 at concentrations between 0.1 μM and 10 μM. Migrated cells were counted in the lower chamber and migration quantitated as previously described. Vianello et al. The Journal of Immunology, 2006, 176: 2902-2914; Righi et al., Cancer Res.; 71(16): 5522-34, each of which is incorporated herein in its entirety.
# All wells were run in triplicate.
compound,measurement,setting,value
c1cc(CN2CCCNCCNCCCNCC2)ccc1CN1CCCNCCNCCCNCC1 [AMD3100],"effect on T cell migration (anti-fugetactic at lower, fugetactic at higher concentrations)",human CD3 T cells,bimodal effect
same,effect on human T cell chemotaxis,"human CD3+ T cells; FIG. 1, AMD3100 0.1 μM to 10 μM",bimodal effect
same,effect on human T cell fugetaxis,"human CD3+ T cells; FIG. 2, AMD3100 0.1 μM to 10 μM, antifugetactic properties observed in a specific range",bimodal effect
same,"chemotactic index (CI), chemotactic response","human CD3+ T cells; chemotactic setting, AMD3100 at 1 μM, CI of 1.0 is the control, FIG. 1, triplicate wells",2.3
same,"chemotactic index (CI), fugetactic response","human CD3+ T cells; fugetactic setting, AMD3100 at 0.1 μM, CI of 1.0 is the control, FIG. 2, triplicate wells",1.6
